Source: patent publication EP2907512A1, “Inhibitors of MMP-12 as antiviral Agents” (COMMISSARIAT A L'ENERGIE ATOMIQUE ET AUX ENERGIES …, priority 2014, dated 2015)

Test system: HeLa cells
Experiment: IFNα secretion (ELISA) and IFNα immunostaining in CVB3-infected HeLa cells pre-treated with inhibitors
Type: cell-based
Settings: for IFNα secretion: cells infected with CVB3, ELISA of medium, vs DMSO control

Compound	intracellular IFNα staining (HeLa cells infected with CVB3 for 4 h, immunostaining)	IFNα secretion
Cc1ccc(S(=O)(=O)/C=C/C#N)cc1 [Bay11-7082]	greater intracellular IFNα staining	not secreted
N#CC(=C(/N)Sc1ccccc1N)/C(C#N)=C(\N)Sc1ccccc1N [Compound U0126]	–	secreted
